# Experiments:
# [1] = test system: Tel-Syk expressing BaF3 cells; experiment: Tel-Syk BaF3 viability assay (growth factor-independent growth); type: cell-based, murine; conditions: Tel-Syk BaF3, absence of IL-3
# Procedure: HEK293 T-REx™ (Life Technologies, Grand Island, NY) stably transfected with human TEL-Syk (cloned as described prior section DNA constructs) were plated on black poly-D-lysine coated 96-well plates (BD Biosciences, San Diego, CA) in culture media containing tetracycline-free fetal bovine serum (Clontech, MountainView, CA) for 16 hours in a tissue culture incubator. Tel-Syk expression was induced for 6 hours in fresh growth media containing 1 μg/ml tetracycline (Sigma Chemicals, St. Louis, MO). Plates were preincubated with CC-509 for 90 minutes, fixed immediately with 4% formaldehyde in 1X PBS for 20 min at room temperature, and washed/permeabilized 5-times with PBS containing 0.1% Triton X-100. Plates were blocked with Odyssey Blocking Buffer for 90 minutes at room temperature and incubated overnight at 4°C on a rotating platform with rabbit phospho-Syk (1:1000) and mouse V5 (1:2500) primary antibodies diluted in Odyssey Blocking Buffer. […] Viability of BaF/3 cells expressing Tel-Syk grown in the absence of murine IL-3 was measured using Cell-Titer Glo reagent (Promega, Madison, WI), as described by supplier.
# [2] = test system: rat passive cutaneous anaphylaxis model; experiment: rat passive cutaneous anaphylaxis (PCA) model; type: in vivo; conditions: positive control cromolyn 100 mg/kg IV, p<0.001
# Procedure: On day 0, male CD-IGS rats (170 – 190g; Charles River Laboratories) were anesthetized with isofluorane, their dorsal region shaved and 50 μl Anti-DNP-IgE (Clone SPE-7, Sigma, St. Louis, MO) that had been diluted 1:1000 in saline was injected via the intradermal route at 3 individual spots along the right side of the back. Saline was injected via the intradermal route at 3 individual spots along the left side of the back as a sham control. Twenty-four hours later, 200 μl of BSA-DNP (Calbiochem, San Diego, CA), prepared (1 mg prepared in a 2% solution of Evans blue dye: Sigma Chemicals, St. Louis, MO) was injected via the IV route via the tail vein. Thirty minutes after the BSA-DNP challenge the experiment was terminated and skin samples from the middle of each injection site taken for Evans blue dye measurement at an OD measurement at 620nm on a plate reader following incubation (2h at 90°C) and homogenization in formamide (Sigma Chemicals, St. Louis, MO). Vehicle (20% Captisol® (Captisol), PO), the positive control (Cromolyn: Sigma Chemicals, St. Louis, MO 100mg/kg, 2mL/kg, IV) or CC0484509 (3 and 10mg/kg, PO) were dosed 1h prior to the IV challenge with BSA-DNP.
# For the TEL-Syk assay, the intensity values for the 700 and 800 channel were exported as text files in ActivityBase (IDBS, Guildford, UK) to derive the ratios that reflect kinase activity. For LAD2 experiments, enzyme activity values were exported as text files into ActivityBase to calculate “percent release” according to the formula: 100* supernatant OD405/ (supernatant OD405 + (pellet OD405*pellet dilution factor)). For the basophil and B-cells assays, flow cytometry data was exported from the FACS Array and processed using FloJo software package (TreeStar, Inc., Ashland, Oregon). For the JAK2 HEL and Ramos NFAT β-lactamase assays, the fluorescence values obtained at 460 nm and 530 nm were exported into ActivityBase to calculate response ratios. For the neutrophil, macrophage, KDR, and JAK1/3 assays, raw values were exported into ActivityBase to calculate percent inhibition. All IC50 calculations were generated using XLfit (IDBS, Guildford, UK) algorithm 205 within Excel. For PCA, the OD from the saline injected site was subtracted from the OD from the anti-DNP IgE injected site. Evans blue dye extravasation was expressed as mean ± SEM and % inhibition for the test article groups was normalized to the cromolyn positive control. For the CIA model paw measurements (left and right ankle diameter) were taken for each individual animal and averaged. The mean data from each group was plotted and either the AUC(day 11–18) or % inhibition on day 18 was calculated. Data is expressed as mean ± SEM of each group with n = 6–12. […]
# [3] = set-up: method as in PMID 19096013; conditions: chronic and refractory ITP; cited from earlier work
# [4] = test system: rat collagen-induced arthritis model; experiment: rat collagen-induced arthritis (CIA) model, paw swelling; type: in vivo; conditions: Indomethacin 2 mg/kg oral, p<0.01
# Procedure: Female Lewis rats (150 – 170g; Charles River Laboratories) were house standard shoebox cages, fed Harlan-Tekald diet and water ad libitum and maintained on a 12h light/dark cycle. For induction of arthritis rats were anesthetized with isofluorane and their entire dorsal area shaved. Rats were injected (intradermal) with 100 μl of equal volumes of collagen (Chrondrex, Redmond, WA) and IFA (Sigma Chemicals, St. Louis, MO) emulsion in 10 sites across the dorsal region. At disease onset 11 days following immunization animals were randomized into groups based on their ankle measurements and test article administration was initiated. Rats were dosed orally with vehicle (20% Captisol®), Indomethacin (Sigma Chemicals, St. Louis, MO, 2mg/kg) or CC-509 (15, 25mg/kg QD or 15mg/kg BID) in a dose volume of 5ml/kg. […] On the last day of the study animals were split into 2 cohorts and bleed twice via tail bleed under isofluorane anesthesia and a third terminal bleed following CO2 asphyxiation to obtain a time course of plasma compound exposure at 30minutes, 1, 2, 4, 8 and 24h after the last dose of CC-509.
# For the TEL-Syk assay, the intensity values for the 700 and 800 channel were exported as text files in ActivityBase (IDBS, Guildford, UK) to derive the ratios that reflect kinase activity. For LAD2 experiments, enzyme activity values were exported as text files into ActivityBase to calculate “percent release” according to the formula: 100* supernatant OD405/ (supernatant OD405 + (pellet OD405*pellet dilution factor)). For the basophil and B-cells assays, flow cytometry data was exported from the FACS Array and processed using FloJo software package (TreeStar, Inc., Ashland, Oregon). For the JAK2 HEL and Ramos NFAT β-lactamase assays, the fluorescence values obtained at 460 nm and 530 nm were exported into ActivityBase to calculate response ratios. For the neutrophil, macrophage, KDR, and JAK1/3 assays, raw values were exported into ActivityBase to calculate percent inhibition. All IC50 calculations were generated using XLfit (IDBS, Guildford, UK) algorithm 205 within Excel. For PCA, the OD from the saline injected site was subtracted from the OD from the anti-DNP IgE injected site. Evans blue dye extravasation was expressed as mean ± SEM and % inhibition for the test article groups was normalized to the cromolyn positive control. For the CIA model paw measurements (left and right ankle diameter) were taken for each individual animal and averaged. The mean data from each group was plotted and either the AUC(day 11–18) or % inhibition on day 18 was calculated. Data is expressed as mean ± SEM of each group with n = 6–12. Statistical analysis was performed with Prism Graphpad using one-way ANOVA followed by Dunnett’s comparison using the vehicle group as the control or for measurements over time a 2 way ANOVA followed by a Dunnett’s multiple comparison test. Statistical significance was deemed as * = p<0.05, **p<0.01, ***p<0.001 and p<0.0001.
# [5] = test system: proinflammatory analytes in paw tissue; experiment: inflammatory cytokines measured in the paw, rat CIA; type: in vivo; conditions: day 18; CC-509 all dose levels p<0.01; indomethacin p<0.05
# Procedure: Following the last administration of CC-509, paw samples were collected and processed for cytokine and chemokine analysis (Aushon Biosciences, Billerica, MA). Briefly paws were snap-frozen and pulverized in liquid nitrogen followed by addition of cell signal lysis buffer in the presence of protease and phosphatase inhibitors (Sigma Chemicals, St. Louis, MO). Samples were homogenized on high speed for 30 seconds, incubated on ice for 20 minutes then sonicated at high intensity for 1 minute. Samples were spun at high speed and supernatants were collected for cytokine analysis.
smiles,measurement,setting,value
"NCCNc1ncc(C(N)=O)c(Nc2cccc(C(F)(F)F)c2)n1 [Syk II inhibitor, reference compound]",IC50,[1],2240 ± 290 nM
"O=C(O)c1cc(=O)c2c(OCC(O)COc3cccc4oc(C(=O)O)cc(=O)c34)cccc2o1 [cromolyn, reference compound]",inhibition of skin edema compared to vehicle control group,[2],79%
COc1cc(Nc2ncc(F)c(Nc3ccc4c(n3)N(COP(=O)(O)O)C(=O)C(C)(C)O4)n2)cc(OC)c1OC [fostamatinib],patients with durable platelet responses,[3],8/16
"COc1ccc2c(c1)c(CC(=O)O)c(C)n2C(=O)c1ccc(Cl)cc1 [indomethacin, reference compound]",inhibition of paw swelling,[4],82%
same,MIP-1α in the paw,[5],significantly inhibited

# — paper PMC4710522, “A Novel Triazolopyridine-Based Spleen Tyrosine Kinase Inhibitor That Arrests Joint Inflammation” (PLoS ONE, 2016)
